The experiment relates to 422866-222-R5-J1-PDC complex spheroids viability. In words: Anticancer human tumor 422866-222-R5-J1-PDC patient-derived pancreatic adenocarcinoma cell line growth inhibition [RAS]. The conditions noted are these: for viability, T/C: stronger effect = lower value. The essentials: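 Tumour cells grown as complex spheroids with HUVEC endothelial cells and mesenchymal stem cells, treated with RAS pathway inhibitor combinations. Each agent spans half-log steps from near clinical Cmax, or 10 microM where Cmax is unknown.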

Several values for one entry are separate records, joined by “and”; a condition that tells them apart may be missing. Equal values may be shown once. A value given as a limit tells only on which side of the number the result lay.
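Also: spheroids exposed to compounds for 7 days.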
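For viability, T/C in this document: 100% = DMSO vehicle control viability.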

Take `CCC(CC)c1cc(NC2CCC(N)C2)n2nccc2n1` (stereo not drawn) + C#Cc1c(F)ccc2cc(O)cc(-c3ncc4c(N5CC6CCC(C5)N6)nc(OCC56CCCN5CC(F)C6)nc4c3F)c12: the 50% inhibitory concentration (IC50) runs as follows: (curve of first compound, second compound 0.0316 µM) 1.86 µM; (curve of first compound, second compound 0.1 µM) 1.69 µM; (curve of first compound, second compound 0.316 µM) 1.34 µM; (curve of first compound, second compound 1 µM) 0.466 µM; (curve of first compound, second compound 3.16 µM) less than 0.0316 µM; (curve of first compound, second compound 10 µM) less than 0.0316 µM. The viability, T/C reads like this: (second compound 0.0316 µM, first compound 0.0316 µM) 97.8%; (second compound 0.0316 µM, first compound 0.1 µM) 104%; (second compound 0.0316 µM, first compound 0.316 µM) 118%; (second compound 0.0316 µM, first compound 1 µM) 75.7%; (second compound 0.0316 µM, first compound 3.16 µM) 19.7%; (second compound 0.0316 µM, first compound 10 µM) 36.2%. Besides, the viability, T/C (second compound 0.1 µM, first compound 0.0316 µM) is 99%; the viability, T/C (second compound 0.1 µM, first compound 0.1 µM) was 125%; the viability, T/C (second compound 0.1 µM, first compound 0.316 µM) was 98.2%; the viability, T/C (second compound 0.1 µM, first compound 1 µM) is 71.9%; the viability, T/C (second compound 0.1 µM, first compound 3.16 µM) is 12.5%; the viability, T/C (second compound 0.1 µM, first compound 10 µM) is 35.3%. Moreover, the viability, T/C by setting is: (second compound 0.316 µM, first compound 0.0316 µM) 75%; (second compound 0.316 µM, first compound 0.1 µM) 85.1%; (second compound 0.316 µM, first compound 0.316 µM) 83.4%; (second compound 0.316 µM, first compound 1 µM) 58.5%; (second compound 0.316 µM, first compound 3.16 µM) 12.3%; (second compound 0.316 µM, first compound 10 µM) 38.6%. Also, the viability, T/C is 50.2% (second compound 1 µM, first compound 0.0316 µM); 57.9% (second compound 1 µM, first compound 0.1 µM); 47.8% (second compound 1 µM, first compound 0.316 µM); 46.1% (second compound 1 µM, first compound 1 µM); 12.7% (second compound 1 µM, first compound 3.16 µM); 35.3% (second compound 1 µM, first compound 10 µM). For the same compound, the viability, T/C runs as follows: (second compound 3.16 µM, first compound 0.0316 µM) 35.6%; (second compound 3.16 µM, first compound 0.1 µM) 28.6%; (second compound 3.16 µM, first compound 0.316 µM) 33.3%; (second compound 3.16 µM, first compound 1 µM) 33.9%; (second compound 3.16 µM, first compound 3.16 µM) 10.5%; (second compound 3.16 µM, first compound 10 µM) 39.9%. Also, the viability, T/C (second compound 10 µM, first compound 0.0316 µM) is 21.7%; the viability, T/C (second compound 10 µM, first compound 0.1 µM) was 24.9%; the viability, T/C (second compound 10 µM, first compound 0.316 µM) is 30.2%; the viability, T/C (second compound 10 µM, first compound 1 µM) is 27.6%; the viability, T/C (second compound 10 µM, first compound 3.16 µM) was 9.17%; the viability, T/C (second compound 10 µM, first compound 10 µM) was 35%.
Take `CCN1CCN(Cc2ccc(Nc3ncc(F)c(-c4cc(F)c5nc(C)n(C(C)C)c5c4)n3)nc2)CC1`: the viability, T/C is, setting by setting: (compound 0.00316 µM) 93% [middle of 4 runs]; (compound 0.0316 µM) 90.8% [middle of 4 runs]; (compound 0.1 µM) 77.8% [middle of 4 runs]; (compound 0.316 µM) 78% [middle of 4 runs]; (compound 1 µM) 87.2% [middle of 4 runs]. Also, where the note is “curve of compound”, the IC50 was more than 1 µM.
In the case of `CC1(O)CCCC1n1c(=O)c(C(F)F)cc2cnc(NC3CCN(S(C)(=O)=O)CC3)nc21` (stereo not drawn), the viability, T/C is, setting by setting: (compound 0.0316 µM) 82.7% [middle of 4 runs]; (compound 0.316 µM) 85.5% [middle of 4 runs]; (compound 1 µM) 91.1% [middle of 4 runs]; (compound 10 µM) 58.4% [middle of 4 runs]. Besides, under “curve of compound”, the IC50 was 8.91 µM and > 10 µM and 9.3 µM.

The record behind these values is PubChem BioAssay AID2060901 (Molecular Pharmacology Branch, DTP, NCI, 2025).
